In PMC11362529, “Exploring the neuroprotective potential of Nrf2-pathway activators against annonacin toxicity” (Scientific Reports, 2024):

Assays:
Format in all cases: cell-based, human
LUHMES cells [1] = assay: Mitochondrial superoxide (MitoSOX / calcein AM); settings: 48 h
Procedure: As before, cells seeded on PLO/FN-coated 24-well microplates were treated for 48 h with 20 nM of annonacin and the selected concentrations of Nrf2-pathway activators, in glucose-reduced medium. After this period, the medium was removed, and the cells were washed once with warm HBSS before being simultaneously incubated with 0.5 µM of MitoSOX™ red (Thermo Fisher Scientific) and 1 µM of calcein AM for 30 min at 37 °C. Next, the cells were again washed with HBSS and fresh HBSS was added to maintain cell viability during live-image acquisition on a fluorescence microscope Leica-DFC9000GTC (Leica). The cells were kept under controlled environmental conditions, and similar image acquisition parameters were used for all images, as explained before. We acquired ten to fifteen images per condition, from different view fields across triplicates, with a 200 × magnification (20 × objective, 10 × intermediate magnification). Quantification of MitoSOX and calcein AM FI was performed using the ImageJ software. Briefly, TIFF exported images were submitted to background subtraction using the rolling ball method with a radius of 50 pixels. Channel-specific thresholds were applied to all images to define the ROI, and the FI were measured as integrated density and reported as arbitrary units (a. u.). The MitoSOX FI was normalized to cell viability estimated by calcein AM FI, to obtain a MitoSOX FI/calcein FI ratio. The average ratio of the different view fields per experimental condition was taken and reported as fold change relative to the control (DMSO-treated) condition.

Nrf2 = Nrf2 nuclear translocation (cell fractionation, Western blot); settings: 4 h treatment
Procedure: For fractionation experiments, LUHMES were seeded on double-coated T25 flasks and submitted to pharmacological treatments. Afterwards, the medium was removed and cells were briefly washed with warm HBSS, and trypsinized for 5 min at 37 °C. The cells were pelleted at 500×g for 5 min at 4 °C, washed once with ice-cold PBS (phosphate buffered saline), and centrifuged at 500 g for 2 min at 4 °C. Nuclear protein extraction was achieved using the NE-PER™ nuclear and cytoplasmic extraction kit (Thermo Fisher Scientific), according to the manufacturer’s instructions. Briefly, the pellet was resuspended in 50 µl of CER I buffer, supplemented with Halt™ protease and phosphatase inhibitor cocktail (Thermo Fisher Scientific), and incubated on ice for 10 min, followed by the addition of 2.75 µl of CER II, and a 2 min incubation on ice after vortexing. The samples were then centrifuged at maximum speed for 10 min at 4 °C and the cytoplasmic fraction was saved. The nuclear pellet was washed with ice-cold PBS and resuspended in 25 µl of NER buffer supplemented with protease and phosphatase inhibitors, followed by 6 cycles of 10 min incubation on ice, with 15 s of vortexing between each cycle. Finally, the samples were centrifuged at maximum speed for 10 min at 4 °C and the nuclear fraction was transferred to a new tube. All protein extracts were stored long-term at − 80 °C.
The concentrations of protein extracts were determined by BCA (bicinchoninic acid) assay, using the Pierce™ BCA protein assay kit (Thermo Fisher Scientific), according to the manufacturer’s instructions. Absorbance values were measured on a FLUOstar® Omega plate reader. For Western blot analysis, sample volumes were diluted in PBS to ensure that equal amounts of total protein were loaded. For fractionated samples, 30 µg of cytoplasmic fraction and 15 µg of nuclear fraction were applied. Samples were denatured by heating at 95 °C for 5 min on a ThermoMixer C (Eppendorf, Wesseling-Berzdorf, Germany) with 4 × Laemmli sample buffer supplemented with 10% β-ME (β-mercaptoethanol). SDS–PAGE was performed using 7.5% Criterion™ TGX™ precast midi gels in a Tris–glycine-SDS running buffer (Bio-Rad). The proteins were blotted onto PVDF membranes, using a trans-blot turbo transfer system (Bio-Rad) at 25 V for 30 min. The membranes were blocked for 1 h at RT, with 3 × Roti®-Block solution (Carl Roth, Karlsruhe, Germany) or 5% nonfat-dry milk in 0.05% TBST (Tris-buffered saline with 0.05% Tween20), in the case of the Nrf2 antibody. Membranes were incubated at 4 °C overnight under gentle shaking with the appropriate primary antibody solutions as listed in Supplementary Table S2. On the following day, the membranes were washed with TBST, and incubated with the HRP-secondary antibodies for 2 h at RT (Supplementary Table S2). After further washing, the membranes were exposed to Clarity Western ECL Substrate (Bio-Rad), or SuperSignal West Femto Maximum Sensitivity Substrate (Thermo Fisher Scientific) in the case of the Nrf2 antibody. Chemiluminescence signal was detected with an Odyssey® Fc imaging system (LI-COR Biosciences, Bad Homburg, Germany) and analyzed by Image Studio™ software (LI-COR Biosciences). Fraction purity was confirmed and signal intensity normalized to housekeeping proteins, using β-III tubulin for the cytoplasmic fraction and lamin A for the nuclear fraction. Protein expression was expressed as fold change relative to the control (DMSO-treated) condition.

LUHMES cells [2] = assay: Intracellular ATP levels (ViaLight plus kit); settings: for intracellular ATP levels: protective concentration of compound + 20 nM annonacin, 24 h
Procedure: Mitochondrial activity was estimated by the reduction of MTT (3-(4,5-dimethylthiazol-2-yl)-2,5-diphenyltetrazolium, Sigma-Aldrich). Briefly, LUHMES cells were seeded on PLO/FN-coated 48-well microplates, in triplicates. After a 24 h treatment with 20 nM of annonacin and the protective concentrations of Nrf2-pathway activators in glucose-reduced medium, cells were incubated with 0.5 mg/ml of MTT dissolved in PBS, at 37 °C for 30 min. After that, the medium was removed and the plate was frozen at -80 °C for 1 h, for cell lysing. Next, the plate was thawed and the MTT crystals were completely dissolved in 250 µl of DMSO with vigorous shaking. The absorbance was measured on a FLUOstar® Omega plate reader at λ = 590 nm, using λ = 630 nm absorbance as a background correction. The obtained results were analyzed with the MARS data analysis software (BMG LabTech). After background subtraction, the data were expressed as a percentage of MTT reduction relative to the control (DMSO-treated) condition. Determination of cellular ATP levels was done by using the ViaLight™ plus kit (Lonza, Basel, Switzerland), following the manufacturer’s instructions. Cells were seeded on PLO/FN-coated 48-well microplates and the pharmacological treatments were done similarly as to the assessment of the MTT reduction. On the next day, the medium was removed and cells were washed once with warm HBSS and rested in 210 µl HBSS. The plate was left to reach RT before adding 70 µl cell lysis reagent to each well, provided by the kit. After a 10 min incubation, 10 µl of each lysed cell extract was transferred to a 384-well white plate and combined with 10 µl of ATP monitoring reagent plus. The plate was incubated in the dark for 10 min at RT before the luminescence signal was measured on a FLUOstar® Omega plate reader. The obtained results were analyzed with the MARS data analysis software (BMG LabTech) and expressed as RLUs. For background correction, the RLUs detected for the background control (i.e., 10 µl of ATP monitoring reagent plus combined with 10 µl of cell lysis reagent) were subtracted from the measured RLUs values of all testing conditions.

[3] = protective concentration of compound + 20 nM annonacin
[4] = absence of annonacin, vs control

Row | SMILES | MitoSOX/calcein ratio (LUHMES cells [1]; [3]) | Nrf2 expression in the nuclear fraction, normalized to lamin A (Nrf2; [4]) | Nrf2 expression in the nuclear fraction, normalized to lamin A (Nrf2; presence of 20 nM annonacin) | intracellular ATP levels (LUHMES cells [2]) | MitoSOX fluorescence intensity (LUHMES cells [1]; 20 nM annonacin alone) | MitoSOX/calcein ratio (LUHMES cells [1]; 20 nM annonacin alone) | ATP production (LUHMES cells [2]; annonacin alone)
1 | Cn1c(Nc2nc3ccc(C(F)(F)F)cc3s2)nc2cc(C(=O)NCCOCCO)ccc21 [HPP-D] | to control levels | significantly increased expression of Nrf2 protein in the nuclear fraction | higher expression of Nrf2 in the nuclear fraction | intracellular ATP levels no longer statistically different from healthy control cells | – | – | –
2 | C=CC(C)(C)c1cc(/C=C/C(=O)c2ccc(O)cc2)c(OC)cc1O [licochalcone A] | to levels below control | significantly increased expression of Nrf2 protein in the nuclear fraction | higher expression of Nrf2 in the nuclear fraction | lower intracellular ATP levels | – | – | –
3 | O=C1[C@H](CC[C@H](O)c2ccc(F)cc2)[C@@H](c2ccc(O)cc2)N1c1ccc(F)cc1 [ezetimibe] | to control levels | no evidence of increasing the Nrf2 nuclear expression | no evidence of increasing the Nrf2 nuclear expression | lower intracellular ATP levels | – | – | –
4 | CCCCCCCCCCCC[C@@H](O)[C@H]1CC[C@H]([C@H](O)CCCC[C@H](O)CCCCC[C@@H](O)CC2=CC(C)OC2=O)O1 (stereo partly drawn) [annonacin] | – | – | – | – | no major changes in MitoSOX fluorescence intensity | significantly increased | impaired ATP production
